Data as given in ChEMBL document CHEMBL5252576, “Stictamycin, an Aromatic Polyketide Antibiotic Isolated from a New Zealand Lichen-Sourced Streptomyces Species” (2023).
Converted amounts (≈) assume the structure as drawn.

Assays:
Assay type in all cases: functional
Settings in all cases: time 16-20 hrs
[1] = tested on: Staphylococcus aureus; assay: Antibacterial activity against Staphylococcus aureus assessed as inhibition of bacterial growth incubated for 16 to 20 hrs by Mueller-Hinton broth based two-fold serial dilution method
[2] = tested on: Bacillus subtilis; assay: Antibacterial activity against Bacillus subtilis E168 assessed as inhibition of bacterial growth incubated for 16 to 20 hrs by Mueller-Hinton broth based two-fold serial dilution method
[3] = tested on: Escherichia coli; assay: Antibacterial activity against TolC-deficient Escherichia coli assessed as inhibition of bacterial growth incubated for 16 to 20 hrs by Mueller-Hinton broth based two-fold serial dilution method

Row | SMILES | MIC [1] [µg/mL] | MIC [2] [µg/mL] | MIC [3] [µg/mL]
1 | CC[C@]1(O)CC(=O)c2c(cc3cccc(O)c3c2O)[C@H]1C(C)=O | 2 (≈ 6.36 µM) | 32 (≈ 102 µM) | 32 (≈ 102 µM)
2 | NC[C@H]1O[C@H](O[C@H]2[C@H](O)[C@@H](O[C@H]3O[C@H](CO)[C@@H](O)[C@H](N)[C@H]3O)[C@H](N)C[C@@H]2N)[C@H](O)[C@@H](O)[C@@H]1O [KANAMYCIN] | 1 (≈ 2.06 µM) | 2 (≈ 4.13 µM) | 2 (≈ 4.13 µM)
